# PMC2833264 (Photosynthesis research, 2009)
# Target: T1, C. reinhardtii nitrite reductase (Chlamydomonas reinhardtii, UniProt Q9ZR67)
# T1 sequence (Q9ZR67 29-589): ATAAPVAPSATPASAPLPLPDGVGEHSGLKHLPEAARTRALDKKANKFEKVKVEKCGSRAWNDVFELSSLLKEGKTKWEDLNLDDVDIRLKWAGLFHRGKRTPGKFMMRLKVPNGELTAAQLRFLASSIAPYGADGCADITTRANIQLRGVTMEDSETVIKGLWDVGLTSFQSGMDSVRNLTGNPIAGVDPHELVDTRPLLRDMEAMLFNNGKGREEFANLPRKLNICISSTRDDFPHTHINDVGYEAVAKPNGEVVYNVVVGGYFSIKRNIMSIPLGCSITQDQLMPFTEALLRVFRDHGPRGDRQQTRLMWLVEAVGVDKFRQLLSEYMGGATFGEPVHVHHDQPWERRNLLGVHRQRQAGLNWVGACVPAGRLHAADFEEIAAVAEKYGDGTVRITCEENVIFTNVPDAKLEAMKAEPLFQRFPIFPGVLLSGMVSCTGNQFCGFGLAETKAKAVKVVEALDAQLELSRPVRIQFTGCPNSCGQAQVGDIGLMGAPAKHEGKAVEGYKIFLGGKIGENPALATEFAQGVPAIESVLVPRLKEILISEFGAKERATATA
# Test: spectral perturbation titration
# Format: binding
smiles,measurement,value
O=NO [nitrite],Kd,50 µM
